ChEMBL document CHEMBL1143949, “Antiproliferative effects of 6-anilino-5-chloro-1H-benzo[d]imidazole-4,7-dione in vascular smooth muscle cells” (Bioorg Med Chem, 2008)
pIC50: −log10 of the molar value. Blank lines part the entries; values can stand above or below the compound they belong to. Active and inactive are the calls of the source. The calls are words filed in the database; no cut-off is given here.

Key:
[1] = Antiproliferative activity against rat aortic smooth muscle cells; assay type: functional
[2] = test system: HUVEC; assay: Antiproliferative activity against HUVEC; assay type: functional, cell-based; conditions: Homo sapiens
[3] = test system: NIH3T3; assay: Antiproliferative activity against mouse NIH3T3 cells; assay type: functional, cell-based
[4] = Cell cycle arrest in rat smooth muscle cells assessed as accumulation at G2/M phase at 1 uM after 16 hrs; assay type: functional, cell-based
[5] = Cell cycle arrest in rat aortic smooth muscle cells assessed as accumulation at G0/G1 phase at 1 uM after 16 hrs; assay type: functional
[6] = organism: Rattus norvegicus; assay: Inhibition of PDGF and FBS-induced migration of rat aortic smooth muscle cells by transwell plate assay; assay type: functional
[7] = organism: Rattus norvegicus; assay: Effect on PDGF and serum-induced cyclin E expression in rat aortic smooth muscle cells at 1 uM; assay type: functional
[8] = organism: Rattus norvegicus; assay: Induction of apoptosis in rat aortic smooth muscle cells assessed as caspase 3 activation at 1 uM; assay type: functional
[9] = target: Mitogen-activated protein kinase 1 (Rattus norvegicus) (UniProt P63086); assay: Activation of ERK2 phosphorylation in rat aortic smooth muscle cells at 1 uM
Sequence of Mitogen-activated protein kinase 1 (Rattus norvegicus) (P63086 whole entry): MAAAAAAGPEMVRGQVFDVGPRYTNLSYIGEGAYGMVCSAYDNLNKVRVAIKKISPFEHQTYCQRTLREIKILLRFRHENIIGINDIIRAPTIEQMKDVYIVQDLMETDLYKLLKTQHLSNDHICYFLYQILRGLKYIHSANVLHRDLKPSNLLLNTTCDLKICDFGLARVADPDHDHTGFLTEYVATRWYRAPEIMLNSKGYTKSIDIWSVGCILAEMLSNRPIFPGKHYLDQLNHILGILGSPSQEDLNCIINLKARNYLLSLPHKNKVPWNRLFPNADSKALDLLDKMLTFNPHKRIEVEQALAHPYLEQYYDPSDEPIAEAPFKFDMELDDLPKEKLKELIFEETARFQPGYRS

[10] = Cell cycle arrest in rat aortic smooth muscle cells assessed as accumulation at S phase at 1 uM after 16 hrs; assay type: functional
[11] = Cell cycle arrest in rat aortic smooth muscle cells assessed as accumulation at G1 phase at 1 uM after 16 hrs; assay type: functional
[12] = target: MAP kinase p38 (Homo sapiens) (UniProt O15264+Q15759+Q16539+P53778); assay: Activation of p38 phosphorylation in rat aortic smooth muscle cells at 1 uM
[13] = Cell cycle arrest in rat aortic smooth muscle cells assessed as accumulation at G2 phase at 1 uM after 16 hrs; assay type: functional
[14] = target: Mitogen-activated protein kinase 3 (Rattus norvegicus) (UniProt P21708); assay: Activation of ERK1 phosphorylation in rat aortic smooth muscle cells at 1 uM
Sequence of Mitogen-activated protein kinase 3 (Rattus norvegicus) (P21708 whole entry): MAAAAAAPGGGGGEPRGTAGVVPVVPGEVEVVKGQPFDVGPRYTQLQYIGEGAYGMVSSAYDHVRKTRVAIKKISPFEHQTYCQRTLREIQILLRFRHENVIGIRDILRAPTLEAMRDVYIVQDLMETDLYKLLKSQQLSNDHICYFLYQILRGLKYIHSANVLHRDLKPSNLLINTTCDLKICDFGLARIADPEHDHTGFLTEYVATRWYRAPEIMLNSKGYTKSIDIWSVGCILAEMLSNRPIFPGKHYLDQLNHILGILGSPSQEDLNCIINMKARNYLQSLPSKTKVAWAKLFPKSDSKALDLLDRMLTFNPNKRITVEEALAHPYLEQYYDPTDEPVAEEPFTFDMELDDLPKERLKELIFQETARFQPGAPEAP

Compound: Cc1nc2c([nH]1)C(=O)/C(=N/c1ccc(F)cc1F)C(Cl)=C2O
pIC50 [1]: 5.92 | pIC50 [2]: 6.00 | pIC50 [3]: 6.10

Compound: Cc1nc2c([nH]1)C(=O)/C(=N/c1ccc(Cl)cc1Cl)C(Cl)=C2O
pIC50 [1]: 6.10 | pIC50 [2]: 6.30 | pIC50 [3]: 5.92

Compound: Cc1nc2c([nH]1)C(=O)/C(=N/c1ccc(Cl)cc1)C(Cl)=C2O
pIC50 [1]: 5.55 | pIC50 [2]: 6.10 | pIC50 [3]: 5.89

Compound: Cc1nc2c([nH]1)C(=O)/C(=N/c1ccc(C(F)(F)F)cc1)C(Cl)=C2O
pIC50 [1]: 6.22 | pIC50 [2]: 6.22 | pIC50 [3]: 5.96

Activity [9]: Active | Activity [12]: Active | Activity [14]: Active
Compound: Cc1nc2c([nH]1)C(=O)/C(=N/c1ccccc1)C(Cl)=C2O
Activity [4]: 20.1% | Activity [5]: 56.4% | pIC50 [1]: 6.10 | Activity [6]: Active | Activity [7]: inactive | Activity [8]: Active | Activity [10]: 23.3% | pIC50 [2]: 5.92 | Activity [11]: inactive | pIC50 [3]: 5.28 | Activity [13]: inactive

Compound: Cc1ccc(NC2=C(Cl)C(=O)c3nc(C)[nH]c3C2=O)cc1
pIC50 [1]: 6.10 | pIC50 [2]: 6.00 | pIC50 [3]: 5.80

Compound: Cc1nc2c([nH]1)C(=O)/C(=N/c1ccc(F)cc1)C(Cl)=C2O
pIC50 [1]: 5.52 | pIC50 [2]: 6.00 | pIC50 [3]: 5.92

Compound: Cc1nc2c([nH]1)C(=O)/C(=N/c1cccc(Cl)c1)C(Cl)=C2O
pIC50 [1]: 6.05 | pIC50 [2]: 6.22 | pIC50 [3]: 5.80

Compound: Cc1nc2c([nH]1)C(=O)/C(=N/c1cccc(Cl)c1Cl)C(Cl)=C2O
pIC50 [1]: 6.22 | pIC50 [2]: 6.52 | pIC50 [3]: 5.64

Compound: Cc1nc2c([nH]1)C(=O)/C(=N/c1ccc(F)c(F)c1F)C(Cl)=C2O
pIC50 [1]: 6.10 | pIC50 [2]: 6.30 | pIC50 [3]: 5.80

Compound: Cc1nc2c([nH]1)C(=O)/C(=N/c1ccc(I)cc1)C(Cl)=C2O
pIC50 [1]: 6.00 | pIC50 [2]: 5.70 | pIC50 [3]: 6.22

Compound: Cc1nc2c([nH]1)C(=O)/C(=N/c1cccc(Br)c1)C(Cl)=C2O
pIC50 [1]: 6.00 | pIC50 [2]: 6.10 | pIC50 [3]: 6.10
